Assay results taken from patent US10597388B2, “Pyridazinone herbicides” (FMC CORPORATION, priority 2014, dated 2020).
Like-named read-outs stand apart in the source and are kept apart here.

Tests used:
[1] = test system: barnyardgrass (Echinochloa crus-galli); test: Test A greenhouse herbicide test, pre- and postemergence; assay type: in vivo; conditions: Echinochloa crus-galli, 240 h, 1000 g ai/ha, 0 to 100 scale
Procedure, shortened: (§1)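 Visual injury ratings, 0 (no effect) to 100 (complete control), versus untreated plants after roughly 10 d in a greenhouse. Compounds, formulated in a surfactant-containing non-phytotoxic solvent, were sprayed on loam–sand soil after sowing (pre) or on one- to two-leaf plants 2–10 cm tall (post).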

corn (Zea mays) = test: as above; assay type: in vivo; conditions: Zea mays, 240 h, 1000 g ai/ha, 0 to 100 scale
Procedure, shortened: as §1

[2] = test system: crabgrass, large (large crabgrass, Digitaria sanguinalis); test: as above; assay type: in vivo; conditions: 240 h, 1000 g ai/ha, 0 to 100 scale
Procedure, shortened: as §1

[3] = test system: foxtail, giant (giant foxtail, Setaria faberii); test: as above; assay type: in vivo; conditions: Setaria faberi, 240 h, 1000 g ai/ha, 0 to 100 scale
Procedure, shortened: as §1

[4] = test system: momingglory (Ipomoea spp.); test: as above; assay type: in vivo; conditions: 240 h, 1000 g ai/ha, 0 to 100 scale
Procedure, shortened: as §1

[5] = test system: pigweed (Amaranthus retroflexus); test: as above; assay type: in vivo; conditions: Amaranthus retroflexus, 240 h, 1000 g ai/ha, 0 to 100 scale
Procedure, shortened: as §1

[6] = test system: velvetleaf (Abutilon theophrasti); test: as above; assay type: in vivo; conditions: 240 h, 1000 g ai/ha, 0 to 100 scale
Procedure, shortened: as §1

[7] = test system: wheat (Triticum aestivum); test: as above; assay type: in vivo; conditions: Triticum aestivum, 240 h, 1000 g ai/ha, 0 to 100 scale
Procedure, shortened: as §1

[8] = test system: barnyardgrass (Echinochloa crus-galli); test: Test B flooded paddy test; assay type: in vivo; conditions: Echinochloa crus-galli, 360 h; 250 g ai/ha, Flood; visual rating on scale of 0 to 100 where 0 is no effect and 100 is complete control; 13 to 15 d after treatment; read-out: Plant response rating, Barnyardgrass
Procedure, shortened: (§2)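 Ratings use a 0-100 visual scale, where 100 is complete control, and compare treated plants with controls after 13 to 15 d of greenhouse growth. Compound went straight into paddy water kept 3 cm over the soil surface, applied to seedlings at the 2-leaf stage.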

[9] = test system: ducksalad (Heteranthera limosa); test: Test B flooded paddy test; assay type: in vivo; conditions: Heteranthera limosa, 360 h; 250 g ai/ha, Flood; visual rating on scale of 0 to 100 where 0 is no effect and 100 is complete control; 13 to 15 d after treatment; read-out: Plant response rating, Ducksalad
Procedure, shortened: as §2

rice (Oryza sativa) = test: Test B flooded paddy test; assay type: in vivo; conditions: Oryza sativa, 360 h; 250 g ai/ha, Flood; visual rating on scale of 0 to 100 where 0 is no effect and 100 is complete control; 13 to 15 d after treatment; read-out: Plant response rating, Rice
Procedure, shortened: as §2

[10] = test system: sedge, umbrella (small-flower umbrella sedge, Cyperus difformis); test: Test B flooded paddy test; assay type: in vivo; conditions: Cyperus difformis, 360 h; 250 g ai/ha, Flood; visual rating on scale of 0 to 100 where 0 is no effect and 100 is complete control; 13 to 15 d after treatment; read-out: Plant response rating, Sedge, Umbrella
Procedure, shortened: as §2

[11] = test system: ALOMY, blackgrass (Alopecurus myosuroides); test: Test F mixtures with commercial herbicides, Post- or Pre-emergence; assay type: in vivo; conditions: Table F3; Post-emergence; Rate 62 g a.i./ha; scale 0-100
Protocol: (§3) This test evaluated the effect of mixtures of Compound 1 or Compound 2 with various commercial herbicides on multiple plant species. Seeds of multiple plant species selected were planted into Sandy Loam soil and treated either Post-emergence or Pre-emergence with test chemicals formulated in a non-phytotoxic solvent mixture. Plants were grown in a greenhouse using supplemental lighting to maintain a photoperiod of approximately 16 h; daytime and nighttime temperatures were approximately 24-30 and 19-21° C., respectively. Balanced fertilizer was applied through the watering system. Treated plants and controls were maintained in a greenhouse for 20 d, after which time all species were compared to controls and visually evaluated. Plant response ratings summarized in Tables F1 through F4 and are based on a scale of 0 to 100 where 0 is no effect and 100 is complete control. A dash (-) response means no test result. Application rates (i.e. “Rate”) are expressed in grams of active ingredient per hectare (g a.i./ha). In the following tables KCHSC is kochia (Kochia scoparia), LOLMU in Italian Ryegrass (Lolium multiflorum), AMBEL is common ragweed (Ambrosia elatior), ECHCG is barnyardgrass (Echinochloa crus-galli), SETVI is giant foxtail (Setaria faberii), AMARE is redroot pigweed (Amaranthus retroflexus), ALOMY is blackgrass (Alopecurus myosuroides) and GALAP is galium (Galium aparine). “Obsd.” is observed effect. “Exp.” is expected effect calculated from Colby's Equation.
(§4) Colby's Equation was used to determine the herbicidal effects expected from the mixtures. Colby's Equation (Colby, S. R. “Calculating Synergistic and Antagonistic Responses of Herbicide Combinations,” Weeds, 15(1), pp 20-22 (1967)) calculates the expected additive effect of herbicidal mixtures, and for two active ingredients is of the form: Pa+b=Pa+Pb−(PaPb/100)
(§5) wherein Pa+b is the percentage effect of the mixture expected from additive contribution of the individual components:
(§6) Pa is the observed percentage effect of the first active ingredient at the same use rate as in the mixture, and
(§7) Pb is the observed percentage effect of the second active ingredient at the same use rate as in the mixture.

[12] = test system: AMARE, redroot pigweed (Amaranthus retroflexus); test: as above; assay type: in vivo; conditions: Rate 62 g a.i./ha, scale 0-100
Protocol: as §3, §4, §5, §6, §7

[13] = test system: AMBEL, common ragweed (Ambrosia elatior); test: as above; assay type: in vivo; conditions: Rate 62 g a.i./ha, scale 0-100
Protocol: as §3, §4, §5, §6, §7

[14] = test system: ECHCG, barnyardgrass (Echinochloa crus-galli); test: as above; assay type: in vivo; conditions: Rate 62 g a.i./ha, scale 0-100
Protocol: as §3, §4, §5, §6, §7

[15] = test system: GALAP, galium (Galium aparine); test: as above; assay type: in vivo; conditions: Table F3; Post-emergence; Rate 62 g a.i./ha; scale 0-100
Protocol: as §3, §4, §5, §6, §7

[16] = test system: KCHSC, kochia (Kochia scoparia); test: as above; assay type: in vivo; conditions: Rate 62 g a.i./ha, scale 0-100
Protocol: as §3, §4, §5, §6, §7

[17] = test system: LOLMU, Italian Ryegrass (Lolium multiflorum); test: as above; assay type: in vivo; conditions: Rate 62 g a.i./ha, scale 0-100
Protocol: as §3, §4, §5, §6, §7

[18] = test system: SETVI, giant foxtail (Setaria faberii); test: as above; assay type: in vivo; conditions: Rate 62 g a.i./ha, scale 0-100
Protocol: as §3, §4, §5, §6, §7

Compound: Cc1nn(C)c(=O)c(-c2c(C)oc3ccccc23)c1O [Compound 4, 5-hydroxy-2,6-dimethyl-4-(2-methyl-3-benzofuranyl)-3 (2H)-pyridazinone]
- pest or weed control at 1000 g/ha ([1]; post-emergence, Postemergence, 0 is no effect, 100 is complete control, read-out: Barnyardgrass plant response rating): 70%
- pest or weed control at 1000 g/ha ([1]; pre-emergence, Preemergence, 0 no effect, 100 complete control, read-out: Plant response rating, Barnyardgrass): 100%
- plant injury at 1000 g/ha (corn (Zea mays); post-emergence, Postemergence, 0 is no effect, 100 is complete control, read-out: Corn plant response rating): 0%
- Corn plant response rating (crop injury, 0 = no effect, 100 = complete kill) at 1000 g/ha (corn (Zea mays); pre-emergence, Preemergence, 0 no effect, 100 complete control): 10%
- pest or weed control at 1000 g/ha ([2]; post-emergence, Postemergence, 0 is no effect, 100 is complete control, read-out: Crabgrass, Large plant response rating): 50%
- pest or weed control at 1000 g/ha ([2]; pre-emergence, Preemergence, 0 no effect, 100 complete control, read-out: Plant response rating, Crabgrass, Large): 80%
- pest or weed control at 1000 g/ha ([3]; post-emergence, Postemergence, 0 is no effect, 100 is complete control, read-out: Foxtail, Giant plant response rating): 80%
- pest or weed control at 1000 g/ha ([3]; pre-emergence, Preemergence, 0 no effect, 100 complete control, read-out: Plant response rating, Foxtail, Giant): 80%
- pest or weed control at 1000 g/ha ([4]; post-emergence, Postemergence, 0 is no effect, 100 is complete control, read-out: Morningglory plant response rating): 70%
- pest or weed control at 1000 g/ha ([4]; pre-emergence, Preemergence, 0 no effect, 100 complete control, read-out: Plant response rating, Morningglory): 60%
- pest or weed control at 1000 g/ha ([5]; post-emergence, Postemergence, 0 is no effect, 100 is complete control, read-out: Pigweed plant response rating): 50%
- pest or weed control at 1000 g/ha ([5]; pre-emergence, Preemergence, 0 no effect, 100 complete control, read-out: Plant response rating, Pigweed): 70%
- pest or weed control at 1000 g/ha ([6]; post-emergence, Postemergence, 0 is no effect, 100 is complete control, read-out: Velvetleaf plant response rating): 60%
- pest or weed control at 1000 g/ha ([6]; pre-emergence, Preemergence, 0 no effect, 100 complete control, read-out: Plant response rating, Velvetleaf): 40%
- plant injury at 1000 g/ha ([7]; post-emergence, Postemergence, 0 is no effect, 100 is complete control, read-out: Wheat plant response rating): 0%
- plant injury at 1000 g/ha ([7]; pre-emergence, Preemergence, 0 no effect, 100 complete control, read-out: Plant response rating, Wheat): 0%
- pest or weed control at 250 g/ha [8]: 0%
- pest or weed control at 250 g/ha [9]: 0%
- plant injury at 250 g/ha (rice (Oryza sativa)): 0%
- pest or weed control at 250 g/ha [10]: 0%
- melting point: 238 to 240 °C

Compound: CCNc1nc(Cl)nc(NC(C)C)n1 [atrazine]
- ALOMY Obsd. [11]: 60
- AMARE Obsd. ([12]; Pre-emergence): 85
- AMARE Obsd. ([12]; Table F3, Post-emergence): 75
- AMBEL Obsd. ([13]; Pre-emergence): 10
- AMBEL Obsd. ([13]; Table F3, Post-emergence): 10
- ECHCG Obsd. ([14]; Pre-emergence): 0
- ECHCG Obsd. ([14]; Table F3, Post-emergence): 20
- GALAP Obsd. [15]: 50
- KCHSC Obsd. ([16]; Pre-emergence): 100
- KCHSC Obsd. ([16]; Table F3, Post-emergence): 100
- LOLMU Obsd. ([17]; Pre-emergence): 100
- LOLMU Obsd. ([17]; Table F3, Post-emergence): 15
- SETVI Obsd. ([18]; Pre-emergence): 5
- SETVI Obsd. ([18]; Table F3, Post-emergence): 5
